The test system of assay [1] is PPAR luciferase reporter (PPRE-x3-TK-luc). As to the kind of experiment: PPAR luciferase reporter (PPRE-x3-TK-luc) in astrocytes. It is filed as cell-based, mouse. The conditions noted are these: different doses of aspirin, 4 h. The method, then: FIG. 14(A)-(B) illustrates activation of PPARα by aspirin in primary mouse astrocytes. 14(A) Cells were treated with 5 μM aspirin for different min intervals followed by isolation of nuclear extracts and electrophoretic mobility shift assay for monitoring DNA-binding activity of PPARα using PPARα-binding site of the Tfeb promoter as a probe. 14(B) Astrocytes isolated from wild type, PPARα (−/−) and PPARβ (−/−) mice were transfected with PPAR luciferase reporter (PPRE-x3-TK-luc) plasmid and after 24 h of transfection, cells were stimulated with different doses of aspirin. After 4 h, firefly luciferase activity was measured in total cell extracts. Results are mean +SD of three different experiments. ^ap<0.001 vs control.
A general note: Reporter assays use an easily measured gene product as a stand-in for the process of interest.

Assay [2] has as its system Tfeb. In words: TFEB protein by immunoblot in mouse primary astrocytes. It is filed as cell-based. As to conditions: aspirin 2 and 5 μM, 12 h, serum-free. The protocol: Isolation of Primary Mouse Astroglia: Astroglia were isolated from mixed glial cultures as described (24, 25) according to the procedure of Giulian and Baker (26). Briefly, on day 9, the mixed glial cultures were washed three times with Dulbecco's modified Eagle's medium/F-12 and subjected to shaking at 240 rpm for 2 h at 37° C. on a rotary shaker to remove microglia. After 2 days, the shaking was repeated for 24 h for the removal of oligodendroglia and to ensure the complete removal of all nonastroglial cells. The attached cells were seeded onto new plates for further studies. Immunoblotting: Western blotting was conducted as described earlier (31, 32) with modifications. Briefly, cells were scraped in 1× RIPA buffer, protein was measured using Bradford reagent and sodium dodecyl sulfate (SDS) buffer was added and electrophoresed on NuPAGE® Novex® 4-12% Bis-Tris gels (Invitrogen) and proteins transferred onto a nitrocellulose membrane (Bio-Rad) using the Thermo-Pierce Fast Semi-Dry Blotter. The membrane was then washed for 15 min in TBS plus Tween 20 (TBST) and blocked for 1 hr in TBST containing BSA. […] Densitometric Analysis: Protein blots were analyzed using ImageJ (NIH, Bethesda, Md.) and bands were normalized to their respective β-actin loading controls. […]
A general note: In western blotting, separated proteins are transferred to a membrane and probed.

Molecules are shown by their SMILES.

Consider `CC(=O)Oc1ccccc1C(=O)O` [aspirin], for which the PPRE-driven luciferase activity result in assay [1] (PPARα (−/−) astrocytes) is “not PPARα (−/−)”; in assay [1] (PPARβ (−/−) astrocytes) it was “increased PPRE-driven luciferase activity”; in assay [1] (WT astrocytes), “increased PPRE-driven luciferase activity”. Also, the “TFEB protein level (Western blot)” value in assay [2] is reported as “able to increase the protein level of TFEB”.

The values above are taken from US12023345B2, “Compositions and methods for treating lysosomal disorders” (RUSH UNIVERSITY MEDICAL CENTER, priority 2014, dated 2024).
